Columns and labels:
Test in all cases: radiometric filter-binding kinase assay
MAPK9 (human) = MAPK9 (human) (UniProt P45984)
PHKG1 (human) = PHKG1 (human) (UniProt Q16816)
[1] = tested on: AKT2 (human), P31751 [S474D]
MAP2K1 (human) = MAP2K1 (human) (UniProt Q02750)
RPS6KA1 KD1 KD2 (human) = RPS6KA1 KD1 KD2 (human) (UniProt Q15418)
IKBKB (human) = IKBKB (human) (UniProt O14920)
PIM2 (human) = PIM2 (human) (UniProt Q9P1W9)
MAPK3 (human) = MAPK3 (human) (UniProt P27361)
MKNK1 (human) = MKNK1 (human) (UniProt Q9BUB5)
PRKAA1 or PRKAA2 (rat) = details: accession and sequence are those of the human protein
PRKACA (human) = PRKACA (human) (UniProt P17612)
MAPKAPK2 (human) = MAPKAPK2 (human) (UniProt P49137)
AURKB (human) = AURKB (human) (UniProt Q96GD4)
PKN2 (human) = PKN2 (human) (UniProt Q16513)
MAPK10 (human) = MAPK10 (human) (UniProt P53779)
CAMKK2 (human) = CAMKK2 (human) (UniProt Q96RR4)
MKNK2 (human) = MKNK2 (human) (UniProt Q9HBH9)
STK3 (human) = STK3 (human) (UniProt Q13188)
PRKCA (human) = PRKCA (human) (UniProt P17252)
CHEK2 (human) = CHEK2 (human) (UniProt O96017)
SRC (human) = SRC (human) (UniProt P12931)
CHEK1 (human) = CHEK1 (human) (UniProt O14757)
MAPK1 (human) = MAPK1 (human) (UniProt P28482)
NEK2 (human) = NEK2 (human) (UniProt P51955)
MAPK15 (human) = MAPK15 (human) (UniProt Q8TD08)

Chain of IKBKB (human) (O14920 whole entry, looked up): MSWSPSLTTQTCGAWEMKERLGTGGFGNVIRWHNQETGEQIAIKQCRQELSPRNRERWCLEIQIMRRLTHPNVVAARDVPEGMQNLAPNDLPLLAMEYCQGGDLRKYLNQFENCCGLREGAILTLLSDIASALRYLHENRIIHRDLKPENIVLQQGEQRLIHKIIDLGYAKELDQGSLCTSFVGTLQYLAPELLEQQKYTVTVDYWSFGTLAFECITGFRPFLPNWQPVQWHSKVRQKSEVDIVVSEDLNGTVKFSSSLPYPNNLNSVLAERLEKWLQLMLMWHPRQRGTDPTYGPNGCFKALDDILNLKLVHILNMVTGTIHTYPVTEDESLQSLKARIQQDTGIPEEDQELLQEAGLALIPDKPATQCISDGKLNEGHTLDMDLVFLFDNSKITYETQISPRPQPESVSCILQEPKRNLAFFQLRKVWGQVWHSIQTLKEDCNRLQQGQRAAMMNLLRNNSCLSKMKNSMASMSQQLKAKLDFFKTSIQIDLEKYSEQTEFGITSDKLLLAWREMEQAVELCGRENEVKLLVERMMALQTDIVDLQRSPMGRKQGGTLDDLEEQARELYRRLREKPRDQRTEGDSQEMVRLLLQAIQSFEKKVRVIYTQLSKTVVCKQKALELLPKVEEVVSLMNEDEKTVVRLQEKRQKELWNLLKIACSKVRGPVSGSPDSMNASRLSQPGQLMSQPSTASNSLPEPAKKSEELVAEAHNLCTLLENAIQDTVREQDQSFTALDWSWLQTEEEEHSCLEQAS
Chain of NEK2 (human) (P51955 whole entry, looked up): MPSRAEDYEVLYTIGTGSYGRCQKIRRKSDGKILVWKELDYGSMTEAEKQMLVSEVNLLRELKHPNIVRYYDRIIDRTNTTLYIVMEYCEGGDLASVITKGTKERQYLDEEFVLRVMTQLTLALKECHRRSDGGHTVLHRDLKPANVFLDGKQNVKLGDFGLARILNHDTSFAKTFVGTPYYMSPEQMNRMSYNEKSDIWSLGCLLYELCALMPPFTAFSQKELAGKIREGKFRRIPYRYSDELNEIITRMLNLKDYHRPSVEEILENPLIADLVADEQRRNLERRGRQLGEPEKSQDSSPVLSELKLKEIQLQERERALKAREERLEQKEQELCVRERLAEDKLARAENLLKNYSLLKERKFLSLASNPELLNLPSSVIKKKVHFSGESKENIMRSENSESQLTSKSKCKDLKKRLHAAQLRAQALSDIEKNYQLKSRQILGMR
Chain of MAPK9 (human) (P45984 whole entry, looked up): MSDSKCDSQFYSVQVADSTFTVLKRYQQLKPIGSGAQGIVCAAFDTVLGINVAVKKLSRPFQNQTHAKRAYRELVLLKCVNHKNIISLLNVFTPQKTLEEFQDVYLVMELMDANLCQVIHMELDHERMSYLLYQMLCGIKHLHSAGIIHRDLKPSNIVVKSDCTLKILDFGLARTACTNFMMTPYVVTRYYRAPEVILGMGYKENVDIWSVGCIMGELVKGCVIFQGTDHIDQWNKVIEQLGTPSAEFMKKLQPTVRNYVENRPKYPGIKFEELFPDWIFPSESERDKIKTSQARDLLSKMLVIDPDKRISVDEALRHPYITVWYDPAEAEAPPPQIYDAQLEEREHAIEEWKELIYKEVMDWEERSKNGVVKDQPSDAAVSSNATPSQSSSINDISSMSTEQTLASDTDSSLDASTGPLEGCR
Chain of SRC (human) (P12931 whole entry, looked up): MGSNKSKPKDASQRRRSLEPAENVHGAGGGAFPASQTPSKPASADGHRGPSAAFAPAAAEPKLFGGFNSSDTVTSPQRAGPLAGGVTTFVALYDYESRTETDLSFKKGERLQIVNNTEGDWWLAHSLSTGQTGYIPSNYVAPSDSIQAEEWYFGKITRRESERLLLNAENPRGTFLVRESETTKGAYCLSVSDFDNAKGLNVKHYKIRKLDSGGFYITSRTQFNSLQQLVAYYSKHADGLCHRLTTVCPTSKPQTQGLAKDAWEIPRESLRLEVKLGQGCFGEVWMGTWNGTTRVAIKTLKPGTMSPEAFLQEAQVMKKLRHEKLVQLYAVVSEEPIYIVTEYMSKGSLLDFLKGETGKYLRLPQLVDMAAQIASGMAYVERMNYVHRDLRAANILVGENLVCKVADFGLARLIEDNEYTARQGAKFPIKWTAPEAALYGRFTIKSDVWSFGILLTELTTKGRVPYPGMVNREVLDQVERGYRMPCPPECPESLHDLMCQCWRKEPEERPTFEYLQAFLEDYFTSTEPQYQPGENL
Chain of MAPK10 (human) (P53779 whole entry, looked up): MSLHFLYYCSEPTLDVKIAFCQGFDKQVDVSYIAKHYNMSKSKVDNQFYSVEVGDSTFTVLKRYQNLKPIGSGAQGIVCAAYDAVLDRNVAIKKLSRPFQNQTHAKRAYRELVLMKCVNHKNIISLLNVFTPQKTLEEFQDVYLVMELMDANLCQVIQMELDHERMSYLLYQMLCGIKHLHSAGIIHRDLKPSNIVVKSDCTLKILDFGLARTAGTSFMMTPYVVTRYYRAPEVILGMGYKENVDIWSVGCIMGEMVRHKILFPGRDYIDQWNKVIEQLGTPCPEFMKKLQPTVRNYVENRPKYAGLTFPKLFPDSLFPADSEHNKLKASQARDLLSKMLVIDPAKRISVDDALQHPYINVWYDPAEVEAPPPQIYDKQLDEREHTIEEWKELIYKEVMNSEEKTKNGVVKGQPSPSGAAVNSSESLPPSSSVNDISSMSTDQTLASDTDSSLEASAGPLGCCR
Chain of MAPK3 (human) (P27361 whole entry, looked up): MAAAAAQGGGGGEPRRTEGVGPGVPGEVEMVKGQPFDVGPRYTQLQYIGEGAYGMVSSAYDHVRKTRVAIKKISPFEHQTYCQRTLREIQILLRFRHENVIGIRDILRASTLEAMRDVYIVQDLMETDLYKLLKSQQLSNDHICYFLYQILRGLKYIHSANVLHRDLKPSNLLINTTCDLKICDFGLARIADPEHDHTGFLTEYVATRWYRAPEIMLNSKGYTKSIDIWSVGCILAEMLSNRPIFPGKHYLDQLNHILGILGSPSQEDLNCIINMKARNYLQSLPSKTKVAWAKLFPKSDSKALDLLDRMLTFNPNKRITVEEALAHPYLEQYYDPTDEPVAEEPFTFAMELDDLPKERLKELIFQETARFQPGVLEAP
Chain of PHKG1 (human) (Q16816 whole entry, looked up): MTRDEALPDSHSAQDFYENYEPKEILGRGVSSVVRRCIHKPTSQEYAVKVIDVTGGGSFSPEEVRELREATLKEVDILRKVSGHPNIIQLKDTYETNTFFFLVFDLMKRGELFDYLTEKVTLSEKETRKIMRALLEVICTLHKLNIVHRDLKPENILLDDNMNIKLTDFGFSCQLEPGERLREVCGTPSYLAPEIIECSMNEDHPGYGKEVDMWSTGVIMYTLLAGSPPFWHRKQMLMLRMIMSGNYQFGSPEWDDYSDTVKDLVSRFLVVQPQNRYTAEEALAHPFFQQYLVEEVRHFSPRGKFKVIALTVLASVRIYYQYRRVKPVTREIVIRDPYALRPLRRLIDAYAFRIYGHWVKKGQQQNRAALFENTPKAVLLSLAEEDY
Chain of CHEK1 (human) (O14757 whole entry, looked up): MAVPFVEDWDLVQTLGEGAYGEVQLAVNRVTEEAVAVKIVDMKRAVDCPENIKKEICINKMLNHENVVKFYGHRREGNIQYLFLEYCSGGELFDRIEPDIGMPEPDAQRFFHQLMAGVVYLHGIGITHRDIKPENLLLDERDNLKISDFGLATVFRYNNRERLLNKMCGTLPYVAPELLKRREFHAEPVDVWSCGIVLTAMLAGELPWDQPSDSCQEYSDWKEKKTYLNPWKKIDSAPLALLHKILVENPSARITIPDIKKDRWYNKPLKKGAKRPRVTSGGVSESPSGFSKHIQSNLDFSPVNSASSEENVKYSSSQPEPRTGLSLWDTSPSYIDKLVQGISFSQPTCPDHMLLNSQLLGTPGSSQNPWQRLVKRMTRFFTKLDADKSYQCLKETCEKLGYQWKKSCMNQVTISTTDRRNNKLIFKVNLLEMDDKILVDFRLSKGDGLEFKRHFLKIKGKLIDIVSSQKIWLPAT
Chain of CAMKK2 (human) (Q96RR4 whole entry, looked up): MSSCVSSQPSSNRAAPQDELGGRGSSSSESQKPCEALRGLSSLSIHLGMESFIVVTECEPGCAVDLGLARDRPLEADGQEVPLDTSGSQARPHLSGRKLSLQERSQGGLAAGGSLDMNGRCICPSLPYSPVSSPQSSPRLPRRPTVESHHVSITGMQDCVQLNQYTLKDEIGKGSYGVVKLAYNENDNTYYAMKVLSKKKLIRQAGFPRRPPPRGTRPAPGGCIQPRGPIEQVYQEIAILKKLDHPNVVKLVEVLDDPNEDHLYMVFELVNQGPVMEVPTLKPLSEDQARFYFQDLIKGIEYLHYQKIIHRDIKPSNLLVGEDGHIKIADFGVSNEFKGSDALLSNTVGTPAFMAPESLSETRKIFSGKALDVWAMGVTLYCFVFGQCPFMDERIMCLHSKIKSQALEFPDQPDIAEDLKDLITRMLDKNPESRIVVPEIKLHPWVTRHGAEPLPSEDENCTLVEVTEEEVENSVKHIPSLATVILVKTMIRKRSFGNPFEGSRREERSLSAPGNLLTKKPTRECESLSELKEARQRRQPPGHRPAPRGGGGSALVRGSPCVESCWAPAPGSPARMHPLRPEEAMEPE
Chain of PIM2 (human) (Q9P1W9 whole entry, looked up): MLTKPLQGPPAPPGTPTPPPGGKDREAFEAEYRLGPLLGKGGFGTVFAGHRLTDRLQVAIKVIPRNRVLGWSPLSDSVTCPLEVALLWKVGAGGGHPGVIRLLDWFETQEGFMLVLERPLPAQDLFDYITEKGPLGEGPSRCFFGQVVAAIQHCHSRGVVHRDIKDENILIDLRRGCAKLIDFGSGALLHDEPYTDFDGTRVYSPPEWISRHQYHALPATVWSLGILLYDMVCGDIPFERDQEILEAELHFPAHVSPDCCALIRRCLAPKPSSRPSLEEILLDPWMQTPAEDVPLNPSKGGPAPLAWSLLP

COc1ccc2c(c1)c1c3c(c4c5ccccc5n(C)c4c1n2CC(O)CN(C)C)C(=O)NC3=O (stereo not given)
residual activity (MAPK9 (human); compound 0.1 µM): 92% | residual activity (MAPK9 (human); compound 1.0 µM): 63% | residual activity (MAPK9 (human); compound 10.0 µM): 35% | residual activity (PHKG1 (human); compound 0.1 µM): 77% | residual activity (PHKG1 (human); compound 1.0 µM): 17% | residual activity (PHKG1 (human); compound 10.0 µM): 11% | residual activity ([1]; compound 0.1 µM): 80% | residual activity ([1]; compound 1.0 µM): 44% | residual activity ([1]; compound 10.0 µM): 13% | residual activity (MAP2K1 (human); compound 0.1 µM): 82% | residual activity (MAP2K1 (human); compound 1.0 µM): 27% | residual activity (MAP2K1 (human); compound 10.0 µM): 16% | residual activity (RPS6KA1 KD1 KD2 (human); compound 0.1 µM): 10% | residual activity (RPS6KA1 KD1 KD2 (human); compound 1.0 µM): 5% | residual activity (RPS6KA1 KD1 KD2 (human); compound 10.0 µM): 5% | residual activity (IKBKB (human); compound 0.1 µM): 104% | residual activity (IKBKB (human); compound 1.0 µM): 94% | residual activity (IKBKB (human); compound 10.0 µM): 80% | residual activity (PIM2 (human); compound 0.1 µM): 38% | residual activity (PIM2 (human); compound 1.0 µM): 6% | residual activity (PIM2 (human); compound 10.0 µM): 1% | residual activity (MAPK3 (human); compound 0.1 µM): 94% | residual activity (MAPK3 (human); compound 1.0 µM): 102% | residual activity (MAPK3 (human); compound 10.0 µM): 96% | residual activity (MKNK1 (human); compound 0.1 µM): 94% | residual activity (MKNK1 (human); compound 1.0 µM): 80% | residual activity (MKNK1 (human); compound 10.0 µM): 62% | residual activity (PRKAA1 or PRKAA2 (rat); compound 0.1 µM): 64% | residual activity (PRKAA1 or PRKAA2 (rat); compound 1.0 µM): 19% | residual activity (PRKAA1 or PRKAA2 (rat); compound 10.0 µM): 24% | residual activity (PRKACA (human); compound 0.1 µM): 42% | residual activity (PRKACA (human); compound 1.0 µM): 7% | residual activity (PRKACA (human); compound 10.0 µM): 2% | residual activity (MAPKAPK2 (human); compound 0.1 µM): 107% | residual activity (MAPKAPK2 (human); compound 1.0 µM): 93% | residual activity (MAPKAPK2 (human); compound 10.0 µM): 62% | residual activity (AURKB (human); compound 0.1 µM): 17% | residual activity (AURKB (human); compound 1.0 µM): 14% | residual activity (AURKB (human); compound 10.0 µM): 12% | residual activity (PKN2 (human); compound 0.1 µM): 63% | residual activity (PKN2 (human); compound 1.0 µM): 13% | residual activity (PKN2 (human); compound 10.0 µM): 4% | residual activity (MAPK10 (human); compound 0.1 µM): 90% | residual activity (MAPK10 (human); compound 1.0 µM): 97% | residual activity (MAPK10 (human); compound 10.0 µM): 87% | residual activity (CAMKK2 (human); compound 0.1 µM): 113% | residual activity (CAMKK2 (human); compound 1.0 µM): 68% | residual activity (CAMKK2 (human); compound 10.0 µM): 37% | residual activity (MKNK2 (human); compound 0.1 µM): 90% | residual activity (MKNK2 (human); compound 1.0 µM): 88% | residual activity (MKNK2 (human); compound 10.0 µM): 70% | residual activity (STK3 (human); compound 0.1 µM): 20% | residual activity (STK3 (human); compound 1.0 µM): 3% | residual activity (STK3 (human); compound 10.0 µM): 2% | residual activity (PRKCA (human); compound 0.1 µM): 5% | residual activity (PRKCA (human); compound 1.0 µM): 1% | residual activity (PRKCA (human); compound 10.0 µM): 1% | residual activity (CHEK2 (human); compound 0.1 µM): 57% | residual activity (CHEK2 (human); compound 1.0 µM): 27% | residual activity (CHEK2 (human); compound 10.0 µM): 10% | residual activity (SRC (human); compound 0.1 µM): 104% | residual activity (SRC (human); compound 1.0 µM): 95% | residual activity (SRC (human); compound 10.0 µM): 63% | residual activity (CHEK1 (human); compound 0.1 µM): 56% | residual activity (CHEK1 (human); compound 1.0 µM): 13% | residual activity (CHEK1 (human); compound 10.0 µM): 4% | residual activity (MAPK1 (human); compound 0.1 µM): 114% | residual activity (MAPK1 (human); compound 1.0 µM): 110% | residual activity (MAPK1 (human); compound 10.0 µM): 106% | residual activity (NEK2 (human); compound 0.1 µM): 95% | residual activity (NEK2 (human); compound 1.0 µM): 80% | residual activity (NEK2 (human); compound 10.0 µM): 59% | residual activity (MAPK15 (human); compound 0.1 µM): 78% | residual activity (MAPK15 (human); compound 1.0 µM): 53% | residual activity (MAPK15 (human); compound 10.0 µM): 54%

Reference: the kinase profiling compilation of Christmann-Franck et al. (2016)
